{"source": "patent US7855174B2", "about": "(priority 2007, dated 2010)", "key": {"rat mesenteric arteries": {"system": "rat mesenteric arteries", "test": "tissue or blood"}, "MLC": {"system": "MLC", "parameters": "species or system rat"}}, "note": "pEC50: −log10 of the molar value. Read-outs that look alike come from different tables or passages of the source."}
{"smiles": "NC[C@H](O)c1ccc(O)c(O)c1", "note": "[NE, norepinephrine]", "values": [{"measurement": "pEC50", "setting": "rat mesenteric arteries; read-out: EC50 of concentration-contraction relationship", "result": 5.96}, {"measurement": "pEC50", "setting": "rat mesenteric arteries; read-out: apparent EC50 for NE (contraction)", "result": 7.47}, {"measurement": "pEC50", "setting": "rat mesenteric arteries; read-out: approximate EC50 in isolated vessels", "result": "~6.00"}, {"measurement": "change of Ser19 pMLC and total pMLC with concentration", "setting": "MLC", "result": "increases in both total pMLC and Ser19 pMLC"}]}
